Here are results for 13 molecules from US12539292B2, “BRM targeting compounds and associated methods of use” (Arvinas Operations, Inc., priority 2018, dated 2026).

In the assay the target is T1, BRM (Homo sapiens, UniProt P51531).
T1 construct: In-Cell Western Screen of BRM Degradation in SW1573 Cells; endogenous in cells; host or cells: SW1573
The experiment in a line: In-cell Western screen of BRM degradation in SW1573 cells (Dmax and DC50). Format: cell-based. To be noted: BRM degradation, SW1573 cells, Table 2D; for Dmax: read-out: **Dmax (%) (% degraded); for DC50: read-out: *DC50. An outline of the steps: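 SW1573, overnight cpd exposure (18-20 h), 0.1% DMSO final. PFA fix, 0.5% Triton permeabilization, block; IR secondaries at 800/680 nm. Odyssey read → Dmax, DC50.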

T1 sequence (P51531 whole entry): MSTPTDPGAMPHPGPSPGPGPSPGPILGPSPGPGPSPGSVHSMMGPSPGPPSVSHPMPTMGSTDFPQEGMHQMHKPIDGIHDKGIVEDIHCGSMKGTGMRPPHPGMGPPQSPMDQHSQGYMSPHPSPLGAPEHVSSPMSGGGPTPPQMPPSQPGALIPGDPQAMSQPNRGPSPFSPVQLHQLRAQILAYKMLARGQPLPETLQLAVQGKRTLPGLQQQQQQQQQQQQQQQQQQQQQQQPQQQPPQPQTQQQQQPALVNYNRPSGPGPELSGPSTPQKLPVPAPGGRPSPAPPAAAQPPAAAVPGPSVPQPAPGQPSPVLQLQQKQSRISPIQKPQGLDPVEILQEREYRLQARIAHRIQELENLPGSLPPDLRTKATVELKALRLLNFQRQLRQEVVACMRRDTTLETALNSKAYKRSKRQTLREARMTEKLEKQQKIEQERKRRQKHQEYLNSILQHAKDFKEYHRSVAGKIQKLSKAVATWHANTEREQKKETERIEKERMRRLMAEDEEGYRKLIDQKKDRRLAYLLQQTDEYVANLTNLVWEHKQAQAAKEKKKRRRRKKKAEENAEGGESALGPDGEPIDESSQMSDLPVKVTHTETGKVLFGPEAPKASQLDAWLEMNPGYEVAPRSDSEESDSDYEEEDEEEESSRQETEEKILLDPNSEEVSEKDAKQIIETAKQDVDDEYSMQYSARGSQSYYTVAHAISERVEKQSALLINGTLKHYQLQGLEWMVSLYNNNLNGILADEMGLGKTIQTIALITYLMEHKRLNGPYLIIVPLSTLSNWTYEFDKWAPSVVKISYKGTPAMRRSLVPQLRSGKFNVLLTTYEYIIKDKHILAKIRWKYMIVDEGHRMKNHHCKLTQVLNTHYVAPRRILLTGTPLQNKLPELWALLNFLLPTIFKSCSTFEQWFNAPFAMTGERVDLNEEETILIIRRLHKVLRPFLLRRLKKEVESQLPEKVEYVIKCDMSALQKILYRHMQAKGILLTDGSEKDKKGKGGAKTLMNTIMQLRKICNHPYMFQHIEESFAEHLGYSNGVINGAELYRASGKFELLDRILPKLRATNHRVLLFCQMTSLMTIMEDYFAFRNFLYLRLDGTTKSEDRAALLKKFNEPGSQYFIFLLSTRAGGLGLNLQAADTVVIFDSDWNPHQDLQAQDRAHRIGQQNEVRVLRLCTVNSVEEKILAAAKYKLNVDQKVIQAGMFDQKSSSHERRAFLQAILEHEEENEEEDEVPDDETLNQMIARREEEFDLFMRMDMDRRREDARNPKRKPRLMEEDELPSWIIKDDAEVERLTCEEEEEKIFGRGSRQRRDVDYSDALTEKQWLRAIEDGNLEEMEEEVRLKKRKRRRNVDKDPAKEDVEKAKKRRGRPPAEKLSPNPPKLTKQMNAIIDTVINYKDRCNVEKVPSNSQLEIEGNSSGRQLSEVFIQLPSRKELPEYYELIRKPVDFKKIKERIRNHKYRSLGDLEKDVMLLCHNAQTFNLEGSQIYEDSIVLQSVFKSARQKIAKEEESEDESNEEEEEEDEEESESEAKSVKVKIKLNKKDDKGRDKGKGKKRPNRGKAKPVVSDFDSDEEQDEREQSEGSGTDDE

Turning to `Cc1ncsc1-c1ccc([C@H](C)NC(=O)[C@@H]2C[C@@H](O)CN2C(=O)[C@@H](c2cc(OCCC3CCN(C[C@H]4C[C@H](Oc5cc(N6C7CCC6CN(c6cc(-c8ccccc8O)nnc6N)C7)ccn5)C4)CC3)no2)C(C)C)c(F)c1F` [compound 588, (2S,4R)-1-((2R)-2-(3-(2-(1-(((1r,3R)-3-((4-(3-(3-amino-6-(2-hydroxyphenyl)pyridazin-4-yl)-3,8-diazabicyclo[3.2.1]octan-8-yl)pyridin-2-yl)oxy)cyclobutyl)methyl)piperidin-4-yl)ethoxy)isoxazol-5-yl)-3-methylbutanoyl)-N-((S)-1-(2,3-difluoro-4-(4-methylthiazol-5-yl)phenyl)ethyl)-4-hydroxypyrrolidine-2-carboxamide], the Dmax (as a rule, the largest share of the target that was removed) was more than 75% and the half-maximal degradation concentration (DC50) (in general, the midpoint of the concentration-degradation curve) was less than 2.5 nM.
Take `Cc1ncsc1-c1cnc([C@H](C)NC(=O)[C@@H]2C[C@@H](O)CN2C(=O)[C@H](c2cc(N3CCC(CN4CCC(O[C@H]5C[C@H](Oc6cc(N7C8CCC7CN(c7cc(-c9ccccc9O)nnc7N)C8)ccn6)C5)CC4)CC3)no2)C(C)C)cn1` [compound 589, (2S,4R)-1-((2S)-2-(3-(4-((4-((1r,3r)-3-((4-(3-(3-amino-6-(2-hydroxyphenyl)pyridazin-4-yl)-3,8-diazabicyclo[3.2.1]octan-8-yl)pyridin-2-yl)oxy)cyclobutoxy)piperidin-1-yl)methyl)piperidin-1-yl)isoxazol-5-yl)-3-methylbutanoyl)-4-hydroxy-N-((S)-1-(5-(4-methylthiazol-5-yl)pyrazin-2-yl)ethyl)pyrrolidine-2-carboxamide]: the DC50 was more than 30 nM.
`Cc1ncsc1-c1cnc([C@H](C)NC(=O)[C@@H]2C[C@@H](O)CN2C(=O)[C@@H](c2cc(N3CCC(CN4CCC(O[C@H]5C[C@H](Oc6cc(N7C8CCC7CN(c7cc(-c9ccccc9O)nnc7N)C8)ccn6)C5)CC4)CC3)no2)C(C)C)cn1` [compound 590, (2S,4R)-1-((2R)-2-(3-(4-((4-((1r,3r)-3-((4-(3-(3-amino-6-(2-hydroxyphenyl)pyridazin-4-yl)-3,8-diazabicyclo[3.2.1]octan-8-yl)pyridin-2-yl)oxy)cyclobutoxy)piperidin-1-yl)methyl)piperidin-1-yl)isoxazol-5-yl)-3-methylbutanoyl)-4-hydroxy-N-((S)-1-(5-(4-methylthiazol-5-yl)pyrazin-2-yl)ethyl)pyrrolidine-2-carboxamide]: the maximal degradation (Dmax) was more than 75% and the DC50 is less than 2.5 nM.
For `Cc1ncsc1-c1ccc([C@H](C)NC(=O)[C@@H]2C[C@@H](O)CN2C(=O)[C@@H](c2cc(N3CCN(CCN4CCC(C(C)n5cc(-c6cc(-c7ccccc7O)nnc6N)cn5)CC4)CC3)no2)C(C)C)cc1` (stereo partly drawn) [compound 591, (2S,4R)-1-((2R)-2-(3-(4-(2-(4-(1-(4-(3-amino-6-(2-hydroxyphenyl)pyridazin-4-yl)-1H-pyrazol-1-yl)ethyl)piperidin-1-yl)ethyl)piperazin-1-yl)isoxazol-5-yl)-3-methylbutanoyl)-4-hydroxy-N-((S)-1-(4-(4-methylthiazol-5-yl)phenyl)ethyl)pyrrolidine-2-carboxamide] the same measures were more than 75% and less than 2.5 nM.
For `Cc1ncsc1-c1ccc([C@H](C)NC(=O)[C@@H]2C[C@@H](O)CN2C(=O)[C@@H](c2cc(N3CCN(CCOc4cc(N5C6CCC5CN(c5cc(-c7ccccc7O)nnc5N)C6)ccn4)CC3)no2)C(C)C)cc1` [compound 592, (2S,4R)-1-((2R)-2-(3-(4-(2-((4-(3-(3-amino-6-(2-hydroxyphenyl)pyridazin-4-yl)-3,8-diazabicyclo[3.2.1]octan-8-yl)pyridin-2-yl)oxy)ethyl)piperazin-1-yl)isoxazol-5-yl)-3-methylbutanoyl)-4-hydroxy-N-((S)-1-(4-(4-methylthiazol-5-yl)phenyl)ethyl) pyrrolidine-2-carboxamide] the same measures were more than 75% and less than 2.5 nM.
For `Cc1ncsc1-c1ccc([C@H](C)NC(=O)[C@@H]2C[C@@H](O)CN2C(=O)[C@H](c2cc(OCCC3CCN(C[C@H]4C[C@H](N5CCC(CN6CCOC7(CCN(c8cc(-c9ccccc9O)nnc8N)CC7)C6)CC5)C4)CC3)no2)C(C)C)cc1` [compound 597, (2S,4R)-1-((S)-2-(3-(2-(1-(((1r,3S)-3-(4-((9-(3-amino-6-(2-hydroxyphenyl)pyridazin-4-yl)-1-oxa-4,9-diazaspiro[5.5]undecan-4-yl)methyl)piperidin-1-yl)cyclobutyl)methyl)piperidin-4-yl)ethoxy)isoxazol-5-yl)-3-methylbutanoyl)-4-hydroxy-N-((S)-1-(4-(4-methylthiazol-5-yl)phenyl)ethyl)pyrrolidine-2-carboxamide] the same measures were more than 75% and 10 to 30 nM.
Regarding `Cc1ncsc1-c1ccc([C@H](C)NC(=O)[C@@H]2C[C@@H](O)CN2C(=O)[C@@H](c2cc(OCCC3CCN(C[C@H]4C[C@H](N5CCC(CN6CCOC7(CCN(c8cc(-c9ccccc9O)nnc8N)CC7)C6)CC5)C4)CC3)no2)C(C)C)cc1` [compound 598, (2S,4R)-1-((R)-2-(3-(2-(1-(((1r,3R)-3-(4-((9-(3-amino-6-(2-hydroxyphenyl)pyridazin-4-yl)-1-oxa-4,9-diazaspiro[5.5]undecan-4-yl)methyl)piperidin-1-yl)cyclobutyl)methyl)piperidin-4-yl)ethoxy)isoxazol-5-yl)-3-methylbutanoyl)-4-hydroxy-N-((S)-1-(4-(4-methylthiazol-5-yl)phenyl)ethyl)pyrrolidine-2-carboxamide], the Dmax is more than 75% and the DC50 was less than 2.5 nM.
Take `Cc1ncsc1-c1ccc([C@H](C)NC(=O)[C@@H]2C[C@@H](O)CN2C(=O)[C@@H](c2cc(OCCC3CCN(C[C@H]4C[C@H](N5CCC(C(C)n6cc(-c7cc(-c8ccccc8O)nnc7N)cn6)CC5)C4)CC3)no2)C(C)C)cc1` (stereo partly drawn) [compound 599, (2S,4R)-1-((2R)-2-(3-(2-(1-(((1r,3R)-3-(4-(1-(4-(3-amino-6-(2-hydroxyphenyl)pyridazin-4-yl)-1H-pyrazol-1-yl)ethyl)piperidin-1-yl)cyclobutyl)methyl)piperidin-4-yl)ethoxy)isoxazol-5-yl)-3-methylbutanoyl)-4-hydroxy-N-((S)-1-(4-(4-methylthiazol-5-yl)phenyl)ethyl)pyrrolidine-2-carboxamide]: the Dmax was more than 75% and the DC50 was less than 2.5 nM.
With `Cc1nccn1-c1ccc([C@H](C)NC(=O)[C@@H]2C[C@@H](O)CN2C(=O)[C@H](c2cc(N3CCC(O[C@H]4C[C@H](Oc5cc(N6C7CCC6CN(c6cc(-c8ccccc8O)nnc6N)C7)ccn5)C4)CC3)no2)C(C)C)cc1` [compound 600, (2S,4R)-1-((2S)-2-(3-(4-((1r,3S)-3-((4-(3-(3-amino-6-(2-hydroxyphenyl)pyridazin-4-yl)-3,8-diazabicyclo[3.2.1]octan-8-yl)pyridin-2-yl)oxy)cyclobutoxy)piperidin-1-yl)isoxazol-5-yl)-3-methylbutanoyl)-4-hydroxy-N-((S)-1-(4-(2-methyl-1H-imidazol-1-yl)phenyl)ethyl)pyrrolidine-2-carboxamide], the DC50 is more than 30 nM.
As for `Cc1nccn1-c1ccc([C@H](C)NC(=O)[C@@H]2C[C@@H](O)CN2C(=O)[C@@H](c2cc(N3CCC(O[C@H]4C[C@H](Oc5cc(N6C7CCC6CN(c6cc(-c8ccccc8O)nnc6N)C7)ccn5)C4)CC3)no2)C(C)C)cc1` [compound 601, (2S,4R)-1-((2R)-2-(3-(4-((1r,3R)-3-((4-(3-(3-amino-6-(2-hydroxyphenyl)pyridazin-4-yl)-3,8-diazabicyclo[3.2.1]octan-8-yl)pyridin-2-yl)oxy)cyclobutoxy)piperidin-1-yl)isoxazol-5-yl)-3-methylbutanoyl)-4-hydroxy-N-((S)-1-(4-(2-methyl-1H-imidazol-1-yl)phenyl)ethyl)pyrrolidine-2-carboxamide], the greatest degradation seen (Dmax) is more than 75% and the half-maximal degradation concentration (DC50) was less than 2.5 nM.
As for `Cc1ncsc1-c1ccc([C@H](C)NC(=O)[C@@H]2C[C@@H](O)CN2C(=O)[C@@H](c2cc(N3CCC(CN4CCC(Oc5cc(N6C7CCC6CN(c6cc(-c8ccccc8O)nnc6N)C7)ccn5)CC4)CC3)no2)C(C)C)cc1` [compound 602, (2S,4R)-1-((2R)-2-(3-(4-((4-((4-(3-(3-amino-6-(2-hydroxyphenyl)pyridazin-4-yl)-3,8-diazabicyclo[3.2.1]octan-8-yl)pyridin-2-yl)oxy)piperidin-1-yl)methyl)piperidin-1-yl)isoxazol-5-yl)-3-methylbutanoyl)-4-hydroxy-N-((S)-1-(4-(4-methylthiazol-5-yl)phenyl)ethyl)pyrrolidine-2-carboxamide], the Dmax was more than 75% and the DC50 was less than 2.5 nM.
As for `Cc1ncsc1-c1ccc([C@H](C)NC(=O)[C@@H]2C[C@@H](O)CN2C(=O)[C@@H](c2cc(N3CCC(CN4CCC(COc5cc(N6C7CCC6CN(c6cc(-c8ccccc8O)nnc6N)C7)ccn5)CC4)CC3)no2)C(C)C)cc1` [compound 603, (2S,4R)-1-((2R)-2-(3-(4-((4-(((4-(3-(3-amino-6-(2-hydroxyphenyl)pyridazin-4-yl)-3,8-diazabicyclo[3.2.1]octan-8-yl)pyridin-2-yl)oxy)methyl)piperidin-1-yl)methyl)piperidin-1-yl)isoxazol-5-yl)-3-methylbutanoyl)-4-hydroxy-N-((S)-1-(4-(4-methylthiazol-5-yl)phenyl)ethyl)pyrrolidine-2-carboxamide], the Dmax is more than 75% and the half-maximal degradation concentration (DC50) was less than 2.5 nM.
On to `Cc1ncsc1-c1ccc([C@H](C)NC(=O)[C@@H]2C[C@@H](O)CN2C(=O)[C@@H](c2cc(N3CCC(CN4CCC(CCOc5cc(N6C7CCC6CN(c6cc(-c8ccccc8O)nnc6N)C7)ccn5)CC4)CC3)no2)C(C)C)cc1` [compound 604, (2S,4R)-1-((2R)-2-(3-(4-((4-(2-((4-(3-(3-amino-6-(2-hydroxyphenyl)pyridazin-4-yl)-3,8-diazabicyclo[3.2.1]octan-8-yl)pyridin-2-yl)oxy)ethyl)piperidin-1-yl)methyl)piperidin-1-yl)isoxazol-5-yl)-3-methylbutanoyl)-4-hydroxy-N-((S)-1-(4-(4-methylthiazol-5-yl)phenyl)ethyl)pyrrolidine-2-carboxamide], for which the Dmax is more than 75% and the DC50 is less than 2.5 nM.
